Test system: TM^wt/wt endothelial cells
Experiment: Static adhesion assay: murine PMNs on endothelial cells from TM^wt/wt mice
Type: cell-based
Conditions: addition of PPACK to exclude thrombin effect
Description: Table 8: Static adhesion assay. […] This is a representative experiment performed 3 times, on 3 different clones each. For each experiment, 5 wells were used for each condition, and adherent leukocytes in 15 microscopic fields were counted.
Since TM expression is not restricted to vascular endothelial cells, but is also synthesized by other cells including neutrophils and monocytes, we considered the possibility that the increase in leukocyte efflux into the lungs might be a result of TM alterations on either the neutrophils and/or the vascular endothelium. fEND.5 cells are an established PymT transformed murine endothelial cell line that expresses full-length, functional TM on the cell surface. […] Adhesion and rolling of neutrophils to transformed endothelial cells derived from the TM^wt/wt and TM^LeD/LeD mice were consequently evaluated. […] This was determined not to be an endothelial cell clone-specific artifact, as 3 different clones of endothelial cells were evaluated with similar results. There was also a significant 3-fold increase in PMN and lymphocyte adhesion to resting TM^LeD/LeD endothelial cells as compared to TM^wt/wt endothelial cells (Table 8). […]
Neutrophils and lymphocytes were isolated from bone marrow according to the method of Lowell and Berton ^35. Each population was assessed to be over 95% pure by microscopic analysis after Wright staining. […]

Structure (SMILES): NC(N)=NCCC[C@H](NC(=O)[C@@H]1CCCN1C(=O)[C@H](N)Cc1ccccc1)C(=O)CCl [PPACK]
- effect on the results of the adhesion assays: no effect

From US7341992B2, “Lectin-like domain of thrombomodulin and its therapeutic use” (Vlaams Interuniversitair Instituut Voor Biotechnologie VZW, priority 2001, dated 2008)
